Experimental data as given in patent publication US20070128217A1 (priority 2003, published 2007).

What was measured:
[1] = tested on: antibodies in sera from SARS patients (sera 1a, 1b, 2, 6, 37, 62, London, SARS-yellow, SARS-green); type: binding, human; parameters: Binding of serum 6 to linear peptides of protein X1 of SARS-CoV Urbani / Binding of serum 37 to linear peptides of protein X1 of SARS-CoV Urbani / Binding of serum 6 to looped/cyclic peptide (PEPSCAN-ELISA) / Binding of serum 37 to looped/cyclic peptide (PEPSCAN-ELISA) / Binding of serum 37 to looped/cyclic peptides of protein X1 of SARS-CoV Urbani / Binding of serum 6 to linear peptides of protein X2 / Binding of serum 37 to linear peptides of protein X2 / Binding of serum 37 to looped/cyclic peptides of protein X2 of SARS-CoV Urbani / Binding of serum 6 to linear peptides of protein M of SARS-CoV Urbani / Binding of serum 37 to linear peptides of protein M of SARS-CoV Urbani / Binding of serum 6 to looped/cyclic peptides of protein M of SARS-CoV Urbani / Binding of serum 37 to looped/cyclic peptides of protein M of SARS-CoV Urbani / Binding of serum 6 to linear peptides of protein X3 of SARS-CoV Urbani / Binding of serum 37 to linear peptides of protein X3 of SARS-CoV Urbani / Binding of serum 37 to looped/cyclic peptides of protein X3 of SARS-CoV Urbani / Binding of serum 6 to linear peptides of protein X4 of SARS-CoV Urbani / Binding of serum 37 to linear peptides of protein X4 of SARS-CoV Urbani / Binding of serum 37 to looped/cyclic peptides of protein X4 of SARS-CoV Urbani / Binding of serum 6 to linear peptides of protein X5 of SARS-CoV Urbani / Binding of serum 37 to linear peptides of protein X5 of SARS-CoV Urbani / Binding of serum 37 to looped/cyclic peptides of protein X5 of SARS-CoV Urbani / Binding of serum 6 to linear peptides of protein N of SARS-CoV Urbani / Binding of serum 37 to linear peptides of protein N of SARS-CoV Urbani / Binding of serum 6 to linear peptide (PEPSCAN-ELISA) / Binding of serum 1a to looped/cyclic peptides of protein N of SARS-CoV Urbani / Binding of serum 1b to looped/cyclic peptides of protein N of SARS-CoV Urbani / Binding of serum 2 to looped/cyclic peptides of protein N of SARS-CoV Urbani / Binding of serum 6 to looped/cyclic peptides of protein N of SARS-CoV Urbani / Binding of serum 37 to looped/cyclic peptides of protein N of SARS-CoV Urbani / Binding of serum 62 to looped/cyclic peptides of protein N of SARS-CoV Urbani / Binding of serum London to looped/cyclic peptides of protein N of SARS-CoV Urbani / Binding of serum SARS-green to looped/cyclic peptides of protein N of SARS-CoV Urbani: unit not given here
[2] = tested on: control sera (pooled serum of ten healthy LUMC hospital workers; commercial negative donor pooled serum from the Dutch bloodbank); type: binding, human; parameters: Binding of Control serum LUMC to linear peptides / Binding of Control serum Blood-bank to linear peptides / Binding of Control serum LUMC to looped peptides / Binding of Control Serum Blood-Bank to Looped peptides / Binding of Control serum LUMC to linear peptides of the protein M of SARS-CoV Urbani / Binding of Control serum Blood-bank to linear peptides of the protein M of SARS-CoV Urbani / Binding of Control serum LUMC to looped peptides of the protein M of SARS-CoV Urbani / Binding of Control Serum Blood-Bank to Looped peptides of the protein M of SARS-CoV Urbani: unit not given here
[3] = tested on: rabbit serum obtained by immunizing a rabbit with the SARS-CoV strain Frankfurt 1; type: binding; parameters: Binding of a rabbit serum to linear peptides / Binding of a rabbit serum to looped peptides / Rabbit serum linear peptides / Rabbit serum looped peptides / Binding of a rabbit serum to linear peptides of protein N of SARS-CoV Urbani (Rabbit serum linear peptides) / Binding of a rabbit serum to looped/cyclic peptides of protein N of SARS-CoV Urbani (Rabbit serum looped peptides): unit not given here

SVTDTIVVTEGDGIS
0.5: Binding of serum 1b to linear peptides of protein X1 of SARS-CoV Urbani [1] | Binding of serum 37 to linear peptides of protein X1 of SARS-CoV Urbani [1] | Binding of serum 62 to linear peptides of protein X1 of SARS-CoV Urbani [1]
0.4: Binding of serum 2 to linear peptides of protein X1 of SARS-CoV Urbani [1] | Binding of serum 6 to linear peptides of protein X1 of SARS-CoV Urbani [1] | Binding of serum SARS-yellow to linear peptides of protein X1 of SARS-CoV Urbani [1] | Binding of Control serum Blood-bank to linear peptides [2] | Binding of Control serum LUMC to linear peptides [2] | Binding of a rabbit serum to looped peptides [3]
0.1: Binding of serum 2 to looped/cyclic peptides of protein X1 of SARS-CoV Urbani [1] | Binding of serum 6 to looped/cyclic peptides of protein X1 of SARS-CoV Urbani [1] | Binding of serum London to looped/cyclic peptides of protein X1 of SARS-CoV Urbani [1] | Binding of serum SARS-green to linear peptides of protein X1 of SARS-CoV Urbani [1] | Binding of a rabbit serum to linear peptides [3]
0.3: Binding of serum 1a to looped/cyclic peptides of protein X1 of SARS-CoV Urbani [1] | Binding of serum 37 to looped/cyclic peptides of protein X1 of SARS-CoV Urbani [1] | Binding of serum 62 to looped/cyclic peptides of protein X1 of SARS-CoV Urbani [1] | Binding of Control Serum Blood-Bank to Looped peptides [2] | Binding of Control serum LUMC to looped peptides [2]
0.6: Binding of serum 1a to linear peptides of protein X1 of SARS-CoV Urbani [1]
0.2: Binding of serum 1b to looped/cyclic peptides of protein X1 of SARS-CoV Urbani [1] | Binding of serum London to linear peptides of protein X1 of SARS-CoV Urbani [1] | Binding of serum SARS-green to looped/cyclic peptides of protein X1 of SARS-CoV Urbani [1] | Binding of serum SARS-yellow to looped/cyclic peptides of protein X1 of SARS-CoV Urbani [1]

QTLVLKMLHSSSLTS
0.9: Binding of serum London to looped/cyclic peptides of protein X2 of SARS-CoV Urbani [1]
0.6: Binding of serum 1a to looped/cyclic peptides of protein X2 of SARS-CoV Urbani [1] | Binding of serum 62 to linear peptides of protein X2 [1] | Binding of serum 62 to looped/cyclic peptides of protein X2 of SARS-CoV Urbani [1] | Binding of Control serum LUMC to looped peptides [2]
0.5: Binding of serum 1b to linear peptides of protein X2 [1] | Binding of serum 2 to linear peptides of protein X2 [1] | Binding of serum 6 to linear peptides of protein X2 [1] | Binding of serum 6 to looped/cyclic peptides of protein X2 of SARS-CoV Urbani [1] | Binding of serum 37 to linear peptides of protein X2 [1] | Binding of serum SARS-green to linear peptides of protein X2 [1] | Binding of Control Serum Blood-Bank to Looped peptides [2]
0.7: Binding of serum 1a to linear peptides of protein X2 [1] | Binding of serum SARS-yellow to linear peptides of protein X2 [1] | Binding of Control serum Blood-bank to linear peptides [2]
0.4: Binding of serum 1b to looped/cyclic peptides of protein X2 of SARS-CoV Urbani [1] | Binding of serum 37 to looped/cyclic peptides of protein X2 of SARS-CoV Urbani [1] | Binding of serum London to linear peptides of protein X2 [1] | Binding of serum SARS-yellow to looped/cyclic peptides of protein X2 of SARS-CoV Urbani [1] | Binding of Control serum LUMC to linear peptides [2] | Binding of a rabbit serum to looped peptides [3]
0.3: Binding of serum 2 to looped/cyclic peptides of protein X2 of SARS-CoV Urbani [1] | Binding of serum SARS-green to looped/cyclic peptides of protein X2 of SARS-CoV Urbani [1] | Binding of a rabbit serum to linear peptides [3]

NRNRFLYIIKLVFLW
0.7: Binding of serum 1a to linear peptides of protein M of SARS-CoV Urbani [1] | Binding of serum 37 to linear peptides of protein M of SARS-CoV Urbani [1] | Binding of serum 62 to linear peptides of protein M of SARS-CoV Urbani [1] | Binding of Control serum Blood-bank to linear peptides of the protein M of SARS-CoV Urbani [2] | Binding of Control serum LUMC to looped peptides of the protein M of SARS-CoV Urbani [2]
0.5: Rabbit serum linear peptides [3]
0.1: Binding of serum SARS-yellow to linear peptides of protein M of SARS-CoV Urbani [1]
0.8: Binding of Control Serum Blood-Bank to Looped peptides of the protein M of SARS-CoV Urbani [2]
0.4: Binding of serum 1b to linear peptides of protein M of SARS-CoV Urbani [1] | Binding of Control serum LUMC to linear peptides of the protein M of SARS-CoV Urbani [2] | Rabbit serum looped peptides [3]
0.6: Binding of serum 2 to linear peptides of protein M of SARS-CoV Urbani [1]
recognized in looped/cyclic form: Recognition of the peptide by sera of SARS-CoV infected individuals, and form (linear, looped/cyclic) in which it is recognized [1]
0.3: Binding of serum 6 to linear peptides of protein M of SARS-CoV Urbani [1] | Binding of serum London to linear peptides of protein M of SARS-CoV Urbani [1] | Binding of serum SARS-green to linear peptides of protein M of SARS-CoV Urbani [1]

NKFALTCTSTHFAFA
0.8: Binding of serum 2 to looped/cyclic peptides of protein X4 of SARS-CoV Urbani [1] | Binding of serum SARS-green to looped/cyclic peptides of protein X4 of SARS-CoV Urbani [1] | Binding of Control serum LUMC to looped peptides [2]
0.5: Binding of serum 1b to linear peptides of protein X4 of SARS-CoV Urbani [1] | Binding of serum SARS-yellow to linear peptides of protein X4 of SARS-CoV Urbani [1] | Binding of Control serum LUMC to linear peptides [2] | Rabbit serum linear peptides [3] | Rabbit serum looped peptides [3]
0.6: Binding of serum 1a to linear peptides of protein X4 of SARS-CoV Urbani [1] | Binding of serum 6 to looped/cyclic peptides of protein X4 of SARS-CoV Urbani [1] | Binding of Control serum Blood-bank to linear peptides [2]
0.4: Binding of serum 1b to looped/cyclic peptides of protein X4 of SARS-CoV Urbani [1] | Binding of serum 2 to linear peptides of protein X4 of SARS-CoV Urbani [1] | Binding of serum SARS-green to linear peptides of protein X4 of SARS-CoV Urbani [1]
0.9: Binding of serum 1a to looped/cyclic peptides of protein X4 of SARS-CoV Urbani [1] | Binding of serum 62 to looped/cyclic peptides of protein X4 of SARS-CoV Urbani [1] | Binding of Control Serum Blood-Bank to Looped peptides [2]
0.3: Binding of serum 6 to linear peptides of protein X4 of SARS-CoV Urbani [1] | Binding of serum London to looped/cyclic peptides of protein X4 of SARS-CoV Urbani [1]
0.7: Binding of serum 37 to linear peptides of protein X4 of SARS-CoV Urbani [1] | Binding of serum 37 to looped/cyclic peptides of protein X4 of SARS-CoV Urbani [1] | Binding of serum 62 to linear peptides of protein X4 of SARS-CoV Urbani [1] | Binding of serum London to linear peptides of protein X4 of SARS-CoV Urbani [1] | Binding of serum SARS-yellow to looped/cyclic peptides of protein X4 of SARS-CoV Urbani [1]

VLKMLHSSSLTSLLK
0.3: Binding of Control serum LUMC to looped peptides [2] | Binding of a rabbit serum to looped peptides [3]
0.5: Binding of serum 1b to linear peptides of protein X2 [1] | Binding of serum 2 to linear peptides of protein X2 [1] | Binding of serum 6 to linear peptides of protein X2 [1] | Binding of serum 37 to linear peptides of protein X2 [1] | Binding of serum SARS-green to linear peptides of protein X2 [1] | Binding of serum SARS-yellow to linear peptides of protein X2 [1] | Binding of Control Serum Blood-Bank to Looped peptides [2]
0.4: Binding of serum 1a to looped/cyclic peptides of protein X2 of SARS-CoV Urbani [1] | Binding of serum 62 to looped/cyclic peptides of protein X2 of SARS-CoV Urbani [1] | Binding of serum London to linear peptides of protein X2 [1] | Binding of Control serum LUMC to linear peptides [2]
0.2: Binding of serum 1b to looped/cyclic peptides of protein X2 of SARS-CoV Urbani [1] | Binding of serum 37 to looped/cyclic peptides of protein X2 of SARS-CoV Urbani [1] | Binding of serum SARS-green to looped/cyclic peptides of protein X2 of SARS-CoV Urbani [1] | Binding of serum SARS-yellow to looped/cyclic peptides of protein X2 of SARS-CoV Urbani [1] | Binding of a rabbit serum to linear peptides [3]
0.7: Binding of Control serum Blood-bank to linear peptides [2]
0.6: Binding of serum 1a to linear peptides of protein X2 [1] | Binding of serum 62 to linear peptides of protein X2 [1]
0.1: Binding of serum 2 to looped/cyclic peptides of protein X2 of SARS-CoV Urbani [1] | Binding of serum 6 to looped/cyclic peptides of protein X2 of SARS-CoV Urbani [1] | Binding of serum London to looped/cyclic peptides of protein X2 of SARS-CoV Urbani [1]
